What all share (type): cell-based
In one series the test system is MDA-MB-231 cells. In words: MTT anti-proliferative assay, MDA-MB-231. The note with it: for pIC50: Homo sapiens, MDA-MB-231, read-out: IC50 MDA-MB-231; for selectivity between cell lines (in words): MDA-MB-231 versus MCF-7. (In general: Formazan colour is commonly taken as a measure of viable cells.)
The next series deals with MCF-7 cells. Nature of the series: MTT anti-proliferative assay, MCF-7. Particulars: Homo sapiens, MCF7, read-out: IC50 MCF-7.
The next series has as its system HEK-293 cells. In words: Cytotoxicity against non-tumorigenic HEK-293 cells. Particulars: for pIC50: Homo sapiens, HEK293, read-out: IC50 value in HEK293 cells.

pIC50: −log10 of the molar value. Entries after “also recorded” stand apart in the source; their conditions may differ. Some results are limits rather than exact numbers.

Consider `O=C1N(Cc2cn(CC/C(=C(\c3ccccc3)c3ccc(OCCO)cc3)c3ccccc3)nn2)c2ccc(Cl)cc2C12OCCO2` [15b], for which the pIC50 in the series on MDA-MB-231 cells and in the series on MCF-7 cells was less than 4.00 each time.
Regarding `O=C1C(=O)N(Cc2cn(CC/C(=C(\c3ccccc3)c3ccc(OCCO)cc3)c3ccccc3)nn2)c2ccc(Br)cc21` [14d], the pIC50 in the series on MDA-MB-231 cells and with MCF-7 cells was less than 4.00 in each case.
Take `O=C1C(=O)N(Cc2cn(CC/C(=C(\c3ccccc3)c3ccc(OCCO)cc3)c3ccccc3)nn2)c2ccccc21` [14a]: the pIC50 in the series with MDA-MB-231 cells and in the series with MCF-7 cells was less than 4.00 in each case.
Turning to `OCCOc1ccc(/C(=C(/CCCl)c2ccccc2)c2ccccc2)cc1` [OSP, Ospemifene, reference compound], the pIC50 in the series with MDA-MB-231 cells was less than 4.00; with MCF-7 cells, 4.26.
Regarding `COc1ccc(/C(=C(/CCn2cc(CN3C(=O)C(=O)c4cc(Br)cc(Br)c43)nn2)c2ccccc2)c2ccccc2)cc1` [12c], the pIC50 is 4.83 with MDA-MB-231 cells, 4.88 with MCF-7 cells and 4.67 with HEK-293 cells. Further, in the series on HEK-293 cells, the “cytotoxicity against HEK-293 cells (in words)” value (shortened to “cytotoxicity”) is reported as “moderately cytotoxic”.
`O=C1C(=O)N(Cc2cn(CC/C(=C(\c3ccccc3)c3ccc(OCCO)cc3)c3ccccc3)nn2)c2ccc(F)cc21` [14c]: the pIC50 with MDA-MB-231 cells and in the series on MCF-7 cells was 4.15 throughout.
`O=C1C(=O)N(Cc2cn(CC/C(=C(\c3ccccc3)c3ccc(OCCO)cc3)c3ccccc3)nn2)c2c(Br)cc(Br)cc21` [14e]: in the series on MDA-MB-231 cells, the negative-log IC50 (pIC50) was 4.72 and the “selectivity between cell lines (in words)” value is “selective for the estrogen-independent MDA-MB-231 cells; also recorded: more selective towards the ER-cells”. The pIC50 in the series with MCF-7 cells is 4.50. Moreover, in the series with HEK-293 cells, the “cytotoxicity” value was “non-cytotoxic” and the pIC50 was less than 4.00.
Consider `O=C1N(Cc2cn(CC/C(=C(\c3ccccc3)c3ccc(OCCO)cc3)c3ccccc3)nn2)c2ccc(Br)cc2C12OCCO2` [15d], for which the negative logarithm of the IC50 (pIC50) in the series with MDA-MB-231 cells and in the series on MCF-7 cells was less than 4.00 each time.
With `COc1ccc(/C(=C(/CCn2cc(CN3C(=O)C4(OCCO4)c4cc(Cl)ccc43)nn2)c2ccccc2)c2ccccc2)cc1` [13a], the values for the pIC50 in the series with MDA-MB-231 cells, with MCF-7 cells and with HEK-293 cells were 4.69, 4.68 and 4.36, respectively. Moreover, the “cytotoxicity” value in the series on HEK-293 cells is listed as “moderately cytotoxic”.
Consider `CC1=CC(=O)c2c(O)cccc2C1=O` [Plumbagin, reference compound], for which the pIC50 in the series with MDA-MB-231 cells is 5.36; with MCF-7 cells it was 5.46.
Consider `COc1ccc(/C(=C(/CCn2cc(CN3C(=O)C(=O)c4cc(Br)ccc43)nn2)c2ccccc2)c2ccccc2)cc1` [12b], for which, in the series with MDA-MB-231 cells, the pIC50 was 4.12 and the “selectivity between cell lines (in words)” value is listed as “selective against MDA-MB-231 cells”. In the series with MCF-7 cells, the pIC50 is less than 4.00.
The matching figures for `O=C1C(=O)N(Cc2cn(CC/C(=C(\c3ccccc3)c3ccc(OCCO)cc3)c3ccccc3)nn2)c2ccc(Cl)cc21` [14b]: 4.74, “selective for the estrogen-independent MDA-MB-231 cells” and 4.48.
For `O=C1N(Cc2cn(CC/C(=C(\c3ccccc3)c3ccc(OCCO)cc3)c3ccccc3)nn2)c2ccc(F)cc2C12OCCO2` [15c], the negative-log IC50 (pIC50) with MDA-MB-231 cells and in the series on MCF-7 cells was less than 4.00 throughout.

What is called pIC50 is the IC50 on a negative log10 scale, so that one unit is a factor of ten.

The values above are taken from paper PMC9076587 (RSC Advances, 2019).
